Experimental data published in patent publication US10670605B2, “Cysteine reactive probes and uses thereof” (The Scripps Research Institute, priority 2015, dated 2020).

Assays:
Assay in all cases: Competitive isoTOP-ABPP, cell lysates
Type in all cases: binding
PDIA6 C55 (Q15084) = target: T1, PDIA6 C55 (Q15084) (Homo sapiens, UniProt Q15084); conditions: for isoTOP-ABPP ratio Q15084_C55: 500 μM, invitro
T1 sequence (Q15084 20-440): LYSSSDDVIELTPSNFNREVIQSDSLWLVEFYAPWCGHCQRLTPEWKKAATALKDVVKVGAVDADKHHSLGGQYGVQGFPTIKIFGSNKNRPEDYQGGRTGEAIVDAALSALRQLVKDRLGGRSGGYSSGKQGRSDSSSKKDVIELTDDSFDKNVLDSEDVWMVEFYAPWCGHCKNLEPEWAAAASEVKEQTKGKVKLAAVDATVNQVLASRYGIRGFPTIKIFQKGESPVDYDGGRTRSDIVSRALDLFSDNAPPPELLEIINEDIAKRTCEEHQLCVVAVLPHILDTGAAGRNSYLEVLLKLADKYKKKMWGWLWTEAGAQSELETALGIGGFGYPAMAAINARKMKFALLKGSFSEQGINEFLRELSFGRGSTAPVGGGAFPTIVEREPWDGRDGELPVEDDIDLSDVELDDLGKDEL

SMARCC2 C145 (Q8TAQ2) = SMARCC2 C145 (Q8TAQ2) (Homo sapiens, UniProt Q8TAQ2)
DCUN1D1 C115 (Q96GG9) = DCUN1D1 C115 (Q96GG9) (Homo sapiens, UniProt Q96GG9)
SAMHD1 C522 (Q9Y3Z3) = SAMHD1 C522 (Q9Y3Z3) (Homo sapiens, UniProt Q9Y3Z3)
STAT3 C259 (P40763) = STAT3 C259 (P40763) (Homo sapiens, UniProt P40763); conditions: for isoTOP-ABPP ratio, P40763_C259: 500 μM, invitro; for isoTOP-ABPP ratio (reactivity profile), P40763_C259: 500 μm in-vitro ramos
AIP C122 (O00170) = target: T2, AIP C122 (O00170) (Homo sapiens, UniProt O00170); conditions: for isoTOP-ABPP ratio (reactivity profile), O00170_C122: 500 μm in-vitro ramos
T2 sequence (O00170 1-330): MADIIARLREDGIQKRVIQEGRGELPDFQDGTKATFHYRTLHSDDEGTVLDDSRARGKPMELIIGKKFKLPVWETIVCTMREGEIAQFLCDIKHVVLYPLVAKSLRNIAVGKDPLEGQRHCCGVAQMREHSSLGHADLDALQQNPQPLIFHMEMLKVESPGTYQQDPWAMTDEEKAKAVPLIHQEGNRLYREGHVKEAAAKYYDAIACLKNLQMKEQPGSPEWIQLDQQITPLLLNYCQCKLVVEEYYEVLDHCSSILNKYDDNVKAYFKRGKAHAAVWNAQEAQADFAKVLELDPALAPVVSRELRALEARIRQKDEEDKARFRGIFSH

UBE2L3 C86 (P68036) = UBE2L3 C86 (P68036) (Homo sapiens, UniProt P68036)
ACAT1 C196 (P24752) = target: T3, ACAT1 C196 (P24752) (Homo sapiens, UniProt P24752); conditions: for isoTOP-ABPP ratio, P24752_C196: 500 μM, invitro
T3 sequence (P24752 34-427): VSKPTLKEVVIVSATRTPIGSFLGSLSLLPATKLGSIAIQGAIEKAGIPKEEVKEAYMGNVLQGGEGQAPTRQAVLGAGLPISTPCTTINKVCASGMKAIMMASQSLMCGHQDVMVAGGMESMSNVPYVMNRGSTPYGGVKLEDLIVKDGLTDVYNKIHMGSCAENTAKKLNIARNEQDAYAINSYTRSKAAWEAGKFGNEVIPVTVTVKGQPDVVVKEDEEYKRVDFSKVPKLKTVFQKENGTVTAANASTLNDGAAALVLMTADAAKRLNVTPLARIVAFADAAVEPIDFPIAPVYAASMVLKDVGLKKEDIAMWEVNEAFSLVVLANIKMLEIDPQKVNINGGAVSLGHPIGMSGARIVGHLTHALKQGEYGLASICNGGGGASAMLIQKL

ACAT1 C413 (P24752) = target: T4, ACAT1 C413 (P24752) (Homo sapiens, UniProt P24752); conditions: for isoTOP-ABPP ratio P24752_C413: 500 μM, invitro
T4 sequence (P24752 34-427): T3 sequence (P24752 34-427)

ACAT1 C126 (P24752) = target: T5, ACAT1 C126 (P24752) (Homo sapiens, UniProt P24752); conditions: for isoTOP-ABPP ratio, P24752_C126: 500 μM, invitro, 231
T5 sequence (P24752 34-427): T3 sequence (P24752 34-427)

isoTOP-ABPP ratio Q15084_C55 (PDIA6 C55 (Q15084); 231) | isoTOP-ABPP ratio, P24752_C196 (ACAT1 C196 (P24752); 231) | isoTOP-ABPP ratio P24752_C413 (ACAT1 C413 (P24752); 231) | isoTOP-ABPP ratio, P24752_C126 (ACAT1 C126 (P24752)) | Structure (SMILES) | isoTOP-ABPP ratio (reactivity profile), Q15084_C55 (PDIA6 C55 (Q15084); 500 μm in-vitro ramos) | isoTOP-ABPP ratio (reactivity profile), Q8TAQ2_C145 (SMARCC2 C145 (Q8TAQ2); 500 μm in-vitro ramos) | isoTOP-ABPP ratio (reactivity profile), Q96GG9_C115 (DCUN1D1 C115 (Q96GG9); 500 μm in-vitro ramos) | isoTOP-ABPP ratio (reactivity profile), Q9Y3Z3_C522 (SAMHD1 C522 (Q9Y3Z3); 500 μm in-vitro ramos) | isoTOP-ABPP ratio (reactivity profile), P40763_C259 (STAT3 C259 (P40763)) | isoTOP-ABPP ratio (reactivity profile), O00170_C122 (AIP C122 (O00170)) | isoTOP-ABPP ratio (reactivity profile), P68036_C86 (UBE2L3 C86 (P68036); 500 μm in-vitro ramos) | isoTOP-ABPP ratio (reactivity profile), P24752_C196 (ACAT1 C196 (P24752); 500 μm in-vitro ramos) | isoTOP-ABPP ratio (reactivity profile), P24752_C413 (ACAT1 C413 (P24752); 500 μm in-vitro ramos) | other results
20.0 | 1.5 | 1.9 | 1.5 | Cn1cc(S(=O)(=O)N2CCOCC2)cc1C(=O)NC(=O)CCl [compound 11] | – | – | – | – | – | – | – | – | – | isoTOP-ABPP ratio Q15084_C55 (PDIA6 C55 (Q15084); ramos): 20.0; isoTOP-ABPP ratio Q8TAQ2_C145 (SMARCC2 C145 (Q8TAQ2); 500 μM, invitro, 231): 20.0; isoTOP-ABPP ratio, Q96GG9_C115 (DCUN1D1 C115 (Q96GG9); 500 μM, invitro, ramos): 0.9; isoTOP-ABPP ratio, Q9Y3Z3_C522 (SAMHD1 C522 (Q9Y3Z3); 500 μM, invitro, 231): 2.1; isoTOP-ABPP ratio, P40763_C259 (STAT3 C259 (P40763); 231): 20.0; isoTOP-ABPP ratio, P40763_C259 (STAT3 C259 (P40763); ramos): 20.0; isoTOP-ABPP ratio, O00170_C122 (AIP C122 (O00170); 500 μM, invitro, ramos): 2.8; isoTOP-ABPP ratio, P68036_C86 (UBE2L3 C86 (P68036); 500 μM, invitro, ramos): 1.0; isoTOP-ABPP ratio, P24752_C196 (ACAT1 C196 (P24752); ramos): 1.3; isoTOP-ABPP ratio P24752_C413 (ACAT1 C413 (P24752); ramos): 1.7
0.8 | 0.9 | 1.2 | 0.8 | C=CC(=O)N(Cc1cccnc1)c1ccc(Oc2ccccc2)c(C(F)(F)F)c1 [compound 15] | 1.0 | 1.2 | 0.8 | 1.6 | 1.9 | 1.4 | 1.3 | 1.6 | 0.9 | –
– | – | – | – | O=C(CCl)N1CCC(C(O)(c2ccccc2)c2ccccc2)CC1 [compound 20] | 2.0 | 3.9 | 1.2 | 1.3 | 3.0 | 2.2 | 1.2 | 2.9 | 14.0 | isoTOP-ABPP ratio (reactivity profile), Q15084_C55 (PDIA6 C55 (Q15084); 500 μm in-vitro ramos_231): 1.7; isoTOP-ABPP ratio (reactivity profile), Q8TAQ2_C145 (SMARCC2 C145 (Q8TAQ2); 500 μm in-vitro ramos_231): 2.9; isoTOP-ABPP ratio (reactivity profile), Q96GG9_C115 (DCUN1D1 C115 (Q96GG9); 500 μm in-vitro ramos_231): 1.2; isoTOP-ABPP ratio (reactivity profile), Q9Y3Z3_C522 (SAMHD1 C522 (Q9Y3Z3); 500 μm in-vitro ramos_231): 2.1; isoTOP-ABPP ratio (reactivity profile), P68036_C86 (UBE2L3 C86 (P68036); 500 μm in-vitro ramos_231): 1.1; isoTOP-ABPP ratio (reactivity profile), P24752_C196 (ACAT1 C196 (P24752); 500 μm in-vitro ramos_231): 3.7; isoTOP-ABPP ratio (reactivity profile), P24752_C413 (ACAT1 C413 (P24752); 500 μm in-vitro ramos_231): 20.0; isoTOP-ABPP ratio (reactivity profile), P24752_C126 (ACAT1 C126 (P24752); 500 μm in-vitro ramos): 20.0; isoTOP-ABPP ratio (reactivity profile), P24752_C126 (ACAT1 C126 (P24752); 500 μm in-vitro ramos_231): 10.6
